Test systems include HT29 colon; M14 melanoma; NCI-H226 lung; NCI-H23 lung; OVCAR-4 ovarian; RPMI-8226 leukemia; SK-MEL-28 melanoma; SN12C renal; SNB-19 CNS; U251 CNS.
Holding throughout (test): NCI tumour cell line growth inhibition, 48 h

Where “and” joins values, the source holds several entries; their conditions need not be identical. Equal values may be shown once.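 All cell lines were grown in 96-well plates and treated with compound for 48 hours. Abbreviation: GI50, concentration required for 50% inhibition of growth. TGI denotes the concentration required for complete inhibition of growth.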

As for `CC1OC(CC(=O)O)Cc2c1c(O)c1c(O)cc(-c3cc(=O)c4c(=O)c5c(c(=O)c=4c3=O)CC(CC(=O)O)OC5C)c(O)c1c2O` (stereo not drawn), the GI50 in the assay on HT29 colon is 26.1 µM; in the assay with M14 melanoma, 24.4 µM; in the assay on NCI-H226 lung it was 46.8 µM; in the assay with NCI-H23 lung, 32.7 µM; in the assay on OVCAR-4 ovarian, 35.1 µM; with RPMI-8226 leukemia, 20.9 µM. Moreover, the GI50 in the assay with SK-MEL-28 melanoma is 79.5 µM; in the assay on SN12C renal it was 29.2 µM; with SNB-19 CNS, 66.6 µM; in the assay on U251 CNS, 26.1 µM. The TGI in the assay on HT29 colon was 55.6 µM and 94.7 µM; in the assay on M14 melanoma it was 32 µM and 75.9 µM; in the assay with NCI-H226 lung it was above 75.4 µM; in the assay on NCI-H23 lung, 33.9 µM; in the assay on OVCAR-4 ovarian, 39.7 µM; with RPMI-8226 leukemia, 81.6 µM and 68.7 µM. Moreover, the TGI in the assay with SK-MEL-28 melanoma is 29.5 µM; in the assay with SN12C renal it was 32 µM; with SNB-19 CNS, above 100 µM; in the assay with U251 CNS, > 74 µM and 61 µM.
Consider `COc1cc2c(cc1O)c(=O)n(CCN(C)C)c1c3cc4c(cc3ncc21)OCO4`, for which the GI50 is 0.729 µM in the assay on HT29 colon; below 0.01 µM with M14 melanoma; 0.0184 µM in the assay on NCI-H226 lung; below 0.01 µM in the assay with NCI-H23 lung; 0.0511 µM with OVCAR-4 ovarian; 0.0242 µM in the assay on RPMI-8226 leukemia. Besides, the GI50 was 0.053 µM in the assay on SK-MEL-28 melanoma, below 0.01 µM in the assay on SN12C renal, below 0.01 µM with SNB-19 CNS and below 0.01 µM with U251 CNS. Further, the TGI with HT29 colon is 7.86 µM; in the assay on M14 melanoma it was 0.0535 µM; in the assay on NCI-H226 lung, 0.124 µM; in the assay with NCI-H23 lung, 0.151 µM; in the assay on OVCAR-4 ovarian it was 1.74 µM; with RPMI-8226 leukemia it was 0.434 µM. Also, the TGI with SK-MEL-28 melanoma is 1.01 µM; in the assay with SN12C renal, 10.5 µM; in the assay with SNB-19 CNS, 5.3 µM; in the assay on U251 CNS, 0.0426 µM.
Take `COc1cc2c(/C=C3/C(=O)Nc4ccc(O)cc43)c(Cl)n(Cc3cc(OC)c(OC)c(OC)c3)c2cc1C`: the GI50 in the assay on HT29 colon was 1.71 µM; with M14 melanoma, 1.93 µM; in the assay with NCI-H226 lung, 2.88 µM; with NCI-H23 lung it was 3.54 µM; in the assay with OVCAR-4 ovarian, 4.03 µM; with RPMI-8226 leukemia, 2.12 µM. For the same compound, the GI50 in the assay with SK-MEL-28 melanoma is 0.878 µM; with SN12C renal, 4.14 µM; in the assay with SNB-19 CNS it was 3.32 µM; in the assay on U251 CNS, 2.49 µM. Further, the TGI in the assay with HT29 colon was above 55.9 µM; in the assay on M14 melanoma, 51 µM; with NCI-H226 lung, above 27 µM; in the assay on NCI-H23 lung, above 100 µM; in the assay on OVCAR-4 ovarian, above 100 µM; with RPMI-8226 leukemia it was above 100 µM. Also, the TGI in the assay with SK-MEL-28 melanoma was 5.94 µM; with SN12C renal it was above 44 µM; in the assay with SNB-19 CNS, above 100 µM; in the assay with U251 CNS it was above 28.3 µM.
Regarding `COc1ccc(CNCCCN2C(=O)c3ccc4c5c(ccc(c35)C2=O)C(=O)N(CCCNCc2ccc(OC)c(OC)c2OC)C4=O)c(OC)c1OC`, the GI50 is 0.0522 µM in the assay on HT29 colon; 0.0855 µM with M14 melanoma; 0.337 µM with NCI-H226 lung; 0.0936 µM in the assay on NCI-H23 lung; 0.0599 µM in the assay with OVCAR-4 ovarian; 0.145 µM with RPMI-8226 leukemia. The GI50 is 0.508 µM with SK-MEL-28 melanoma, 0.0821 µM in the assay on SN12C renal, 0.0877 µM with SNB-19 CNS and 0.0879 µM with U251 CNS. Moreover, the TGI in the assay on HT29 colon was 0.244 µM; in the assay on M14 melanoma, 0.162 µM; in the assay with NCI-H226 lung, 1.1 µM; in the assay with NCI-H23 lung, 0.201 µM; with OVCAR-4 ovarian, 0.127 µM; with RPMI-8226 leukemia it was 0.56 µM. Also, the TGI with SK-MEL-28 melanoma is 1.12 µM; in the assay on SN12C renal, 0.157 µM; in the assay on SNB-19 CNS, 0.18 µM; in the assay with U251 CNS, 0.174 µM.
Regarding `Cc1c[nH]c(=O)n(Cc2nnc(CCC(=O)c3nc4ccccc4[nH]3)o2)c1=O`, the GI50 with HT29 colon is 0.194 µM; in the assay with M14 melanoma, 0.492 µM; in the assay with NCI-H226 lung it was 3.48 µM; in the assay with NCI-H23 lung, 0.432 µM; in the assay with OVCAR-4 ovarian, 0.629 µM; in the assay with RPMI-8226 leukemia, 0.34 µM. In addition, the GI50 in the assay on SK-MEL-28 melanoma is 0.533 µM; in the assay with SN12C renal, 1.12 µM; in the assay on SNB-19 CNS, 1.27 µM; with U251 CNS it was 0.372 µM. The TGI in the assay with HT29 colon was above 43.1 µM; with M14 melanoma it was 3.12 µM; with NCI-H226 lung it was above 100 µM; in the assay with OVCAR-4 ovarian, above 100 µM; in the assay with RPMI-8226 leukemia, above 100 µM; with SK-MEL-28 melanoma, above 100 µM. Besides, the TGI in the assay on SN12C renal was above 100 µM; with SNB-19 CNS, above 100 µM; in the assay with U251 CNS it was above 42.5 µM.
Take `CC(=O)Nc1ccc(OC(C)=O)cc1`: the GI50 with HT29 colon, with M14 melanoma, in the assay on NCI-H226 lung, in the assay on NCI-H23 lung, in the assay with OVCAR-4 ovarian and in the assay on RPMI-8226 leukemia was below 0.01 µM in each case. Further, the GI50 is below 0.01 µM with SK-MEL-28 melanoma, below 0.01 µM in the assay on SN12C renal, below 0.0126 µM with SNB-19 CNS and below 0.01 µM with U251 CNS. Moreover, the TGI was 0.776 µM in the assay with HT29 colon; 3.32 µM in the assay on M14 melanoma; 60.3 µM with NCI-H23 lung; above 91.7 µM with OVCAR-4 ovarian; 9.64 µM in the assay on RPMI-8226 leukemia; 48 µM in the assay with SK-MEL-28 melanoma. In addition, the TGI is 49.1 µM with SN12C renal, above 100 µM in the assay with SNB-19 CNS and above 37.7 µM with U251 CNS.

The values are drawn from PubChem BioAssay (NCI).
